Laboratory results reported in patent publication US11034718B2, “C-3 novel triterpenone with C-17 reverse amide derivatives as HIV inhibitors” (HETERO LABS LIMITED, priority 2015, dated 2021).
Counter-ions that a name gives are not always drawn. Like-named read-outs stand apart in the source and are kept apart here.

Assays:
Type in all cases: cell-based
HIV-1 strain 92HT599 = experiment: Antiviral activity against HIV-1 strain 92HT599 in MT2 cells (p24 estimation); conditions: HIV-1 92HT599, ~96 hours
Summary of the method: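 Percent inhibition versus vehicle controls came from p24 quantified in supernatant aliquots. These were taken after ~96 h incubation of compound (DMSO ≤1%) with MT2 cells infected at 10 TCID50/30,000 cells.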

HIV-1 pNL4-3 WT = experiment: Antiviral activity against pNL4-3/WT strain in MT4 cells (p24 estimation); conditions: Human immunodeficiency virus 1, MT4, 96 h, read-out: pNL4-3 WT IC50
Procedure: (§1) Example 78: Evaluation of Compounds Antiviral Activity Against pNL4-3/WT & V7A Strains in MT4 Cells
(§2) MT4 cells were Transfected with HIV-1 Plasmid (pNL4-3-WT & V7A) (Cells were incubating with required number of TCID50 of HIV-1 for 1.5 h at 37° C.). After infection, the infected cells were plated at the concentration of 3×10^4 cells per well in 96 well plate. Test compound was added to the test plate in defined format with the final concentration of DMSO is not more than 1%. Incubation was carried out in CO2 incubator for 4 days for viral infection. At the end of incubation period an aliquot from each well was taken for p24 estimation. p24 estimation was carried out using Advance biosciences kit as per the procedure detailed by supplier.

HIV-1 pNL4-3 V7A = experiment: Antiviral activity against pNL4-3/V7A strain in MT4 cells (p24 estimation); conditions: Human immunodeficiency virus 1, MT4, 96 h, read-out: pNL4-3 V7A IC50
Procedure: as §1, §2

[1] = Human immunodeficiency virus 1, 0% serum binding assay, read-out: IC50 0% serum
[2] = Human immunodeficiency virus 1, 40% serum binding assay, read-out: IC50 40% serum

Structure (SMILES) | IC50 (HIV-1 strain 92HT599; [1]) | IC50 (HIV-1 strain 92HT599; [2]) | IC50 (HIV-1 pNL4-3 WT) | IC50 (HIV-1 pNL4-3 V7A)
CC(C)C1=C2[C@H]3CC[C@@H]4[C@@]5(C)CC[C@H](OC(=O)[C@H]6C[C@@H](C(=O)O)C6(C)C)C(C)(C)[C@@H]5CC[C@@]4(C)[C@]3(C)CC[C@@]2(NC(=O)C(C)(C)NC(=O)c2ccc(Cl)cc2)CC1=O [Example 1, (1R,3S)-3-((((3aR,5aR,5bR,7aR,9S,11aR,11bR,13aS)-3a-(2-(4-chlorobenzamido)-2-methylpropanamido)-1-isopropyl-5a,5b,8,8,11a-pentamethyl-2-oxo-3,3a,4,5,5a,5b,6,7,7a,8,9,10,11,11a,11b,12,13,13a-octadecahydro-2H-cyclopenta[a]chrysen-9-yl)oxy)carbonyl)-2,2-dimethylcyclobutane-1-carboxylic acid] | < 3 nM | < 50 nM | < 5 nM | < 10 nM
CC(C)C1=C2[C@H]3CC[C@@H]4[C@@]5(C)CC[C@H](OC(=O)[C@H]6C[C@@H](C(=O)O)C6(C)C)C(C)(C)[C@@H]5CC[C@@]4(C)[C@]3(C)CC[C@@]2(NC(=O)C(C)(C)NC(=O)c2cnccn2)CC1=O [Example 5, (1R,3S)-3-((((3aR,5aR,5bR,7aR,9S,11aR,11bR,13aS)-1-isopropyl-5a,5b,8,8,11a-pentamethyl-3a-(2-methyl-2-(pyrazine-2-carboxamido)propanamido)-2-oxo-3,3a,4,5,5a,5b,6,7,7a,8,9,10,11,11a,11b,12,13,13a-octadecahydro-2H-cyclopenta[a]chrysen-9-yl)oxy)carbonyl)-2,2-dimethylcyclobutane-1-carboxylic acid] | < 3 nM | 50 to 200 nM | < 5 nM | < 10 nM
Cc1cnc(C(=O)NC(C)(C)C(=O)N[C@@]23CC[C@]4(C)[C@H](CC[C@@H]5[C@@]6(C)CC[C@H](OC(=O)[C@H]7C[C@@H](C(=O)O)C7(C)C)C(C)(C)[C@@H]6CC[C@]54C)C2=C(C(C)C)C(=O)C3)cn1 [Example 7, (1R,3S)-3-((((3aR,5aR,5bR,7aR,9S,11aR,11bR,13aS)-1-isopropyl-5a,5b,8,8,11a-pentamethyl-3a-(2-methyl-2-(5-methylpyrazine-2-carboxamido)propanamido)-2-oxo-3,3a,4,5,5a,5b,6,7,7a,8,9,10,11,11a,11b,12,13,13a-octadecahydro-2H-cyclopenta[a]chrysen-9-yl)oxy)carbonyl)-2,2-dimethylcyclobutane-1-carboxylic acid] | < 3 nM | < 50 nM | < 5 nM | < 10 nM
Cc1nc(C)c(C(=O)NC(C)(C)C(=O)N[C@@]23CC[C@]4(C)[C@H](CC[C@@H]5[C@@]6(C)CC[C@H](OC(=O)[C@H]7C[C@@H](C(=O)O)C7(C)C)C(C)(C)[C@@H]6CC[C@]54C)C2=C(C(C)C)C(=O)C3)s1 [Example 14, (1R,3S)-3-((((3aR,5aR,5bR,7aR,9S,11aR,11bR,13aS)-3a-(2-(2,4-dimethylthiazole-5-carboxamido)-2-methylpropanamido)-1-isopropyl-5a,5b,8,8,11a-pentamethyl-2-oxo-3,3a,4,5,5a,5b,6,7,7a,8,9,10,11,11a,11b,12,13,13a-octadecahydro-2H-cyclopenta[a]chrysen-9-yl)oxy)carbonyl)-2,2-dimethylcyclobutane-1-carboxylic acid] | < 3 nM | < 50 nM | < 5 nM | 10 to 50 nM
CC(C)C1=C2[C@H]3CC[C@@H]4[C@@]5(C)CC[C@H](OC(=O)[C@H]6C[C@@H](C(=O)O)C6(C)C)C(C)(C)[C@@H]5CC[C@@]4(C)[C@]3(C)CC[C@@]2(NC(=O)C(C)(C)NC(=O)c2ccc3[nH]c(-c4cnccn4)nc3c2)CC1=O [Example 15, (1R,3S)-3-((((3aR,5aR,5bR,7aR,9S,11aR,11bR,13aS)-1-isopropyl-5a,5b,8,8,11a-pentamethyl-3a-(2-methyl-2-(2-(pyrazin-2-yl)-1H-benzo[d]imidazole-5-carboxamido)propanamido)-2-oxo-3,3a,4,5,5a,5b,6,7,7a,8,9,10,11,11a,11b,12,13,13a-octadecahydro-2H-cyclopenta[a]chrysen-9-yl)oxy)carbonyl)-2,2-dimethylcyclobutane-1-carboxylic acid] | < 3 nM | < 50 nM | < 5 nM | > 50 nM
Cc1cccnc1C(=O)NC(C)(C)C(=O)N[C@@]12CC[C@]3(C)[C@H](CC[C@@H]4[C@@]5(C)CC[C@H](OC(=O)[C@H]6C[C@@H](C(=O)O)C6(C)C)C(C)(C)[C@@H]5CC[C@]43C)C1=C(C(C)C)C(=O)C2 [Example 29, (1R,3S)-3-((((3aR,5aR,5bR,7aR,9S,11aR,11bR,13aS)-1-isopropyl-5a,5b,8,8,11a-pentamethyl-3a-(2-methyl-2-(3-methylpicolinamido)propanamido)-2-oxo-3,3a,4,5,5a,5b,6,7,7a,8,9,10,11,11a,11b,12,13,13a-octadecahydro-2H-cyclopenta[a]chrysen-9-yl)oxy)carbonyl)-2,2-dimethylcyclobutane-1-carboxylic acid] | – | – | < 5 nM | 10 to 50 nM
CC(C)C1=C2[C@H]3CC[C@@H]4[C@@]5(C)CC[C@H](OC(=O)[C@H]6C[C@@H](C(=O)O)C6(C)C)C(C)(C)[C@@H]5CC[C@@]4(C)[C@]3(C)CC[C@@]2(NC(=O)C(C)(C)N)CC1=O [Example 74, (1R,3S)-3-((((3aR,5aR,5bR,7aR,9S,11aR,11bR,13aS)-3a-(2-amino-2-methylpropanamido)-1-isopropyl-5a,5b,8,8,11a-pentamethyl-2-oxo-3,3a,4,5,5a,5b, 6,7,7a,8,9,10,11,11a,11b,12,13,13a-octadecahydro-2H-cyclopenta[a]chrysen-9-yl)oxy)carbonyl)-2,2-dimethylcyclobutane-1-carboxylic acid hydrochloride] | < 3 nM | < 50 nM | – | –
CC(C)C1=C2[C@H]3CC[C@@H]4[C@@]5(C)CC[C@H](OC(=O)[C@H]6C[C@@H](C(=O)O)C6(C)C)C(C)(C)[C@@H]5CC[C@@]4(C)[C@]3(C)CC[C@@]2(NC(=O)C(C)(C)NC(=O)OC(C)(C)C)CC1=O [Example 75] | < 3 nM | < 50 nM | – | –
CC(C)C1=C2[C@H]3CC[C@@H]4[C@@]5(C)CC[C@H](OC(=O)[C@H]6C[C@@H](C(=O)O)C6(C)C)C(C)(C)[C@@H]5CC[C@@]4(C)[C@]3(C)CC[C@@]2(NC(=O)C(C)(C)NC(=O)[C@@H]2CCCN2)CC1=O [Example 76, (1R,3S)-3-((((3aR,5aR,5bR,7aR,9S,11aR,11bR,13aS)-1-isopropyl-5a,5b,8,8,11a-pentamethyl-3a-(2-methyl-2-((S)-pyrrolidine-2-carboxamido)propanamido)-2-oxo-3,3a,4,5,5a,5b,6,7,7a,8,9,10,11,11a,11b,12,13,13a-octadecahydro-2H-cyclopenta[a]chrysen-9-yl)oxy)carbonyl)-2,2-dimethylcyclobutane-1-carboxylic acid hydrochloride] | < 3 nM | 50 to 200 nM | – | –
